The source of these data is ChEMBL document CHEMBL1123573, “Design and synthesis of peptide derivatives of a 3-deoxy-D-manno-2-octulosonic acid (KDO) analogue as novel antibacterial agents acting upon lipopolysaccharide biosynthesis” (1987).

Converted amounts (≈) assume the structure as drawn.

Type in all cases: functional
In one experiment the test system is Escherichia coli. Briefly: In vitro testing for minimum inhibitory concentration against Escherichia coli ATCC 11303.
Experiment [1] relates to Salmonella typhimurium. Briefly: In vitro testing for minimum inhibitory concentration against Salmonella Typhimurium SL 1102.
In experiment [2] the test system is Salmonella typhimurium. Kind of experiment: In vitro testing for minimum inhibitory concentration against Salmonella Typhimurium LT2 168.
[3] abbreviates: Salmonella enterica subsp. enterica serovar Typhimurium.

For orientation: MIC means the lowest concentration that inhibits growth of the organism. Low readings indicate inhibition by little substance, high ones a need for much substance. On to GENTAMICIN, for which the minimal inhibitory concentration (MIC) in the experiment with Escherichia coli, in the experiment with Salmonella typhimurium [1] (setting [3]) and in the experiment on Salmonella typhimurium [2] (setting [3]) was under 0.05 µM throughout.

As to `CC(N)C(=O)NCC(O)C1OC(C(=O)O)CC(O)C1O` (stereo not given), the MIC in the experiment with Escherichia coli, against Salmonella typhimurium [1] (Salmonella enterica) and in the experiment with Salmonella typhimurium [2] (Salmonella enterica) was over 2000 µM each time.

As to `CC1(C)S[C@@H]2[C@H](NC(=O)[C@H](N)c3ccccc3)C(=O)N2[C@H]1C(=O)O` [AMPICILLIN], the figures for the MIC against Escherichia coli, in the experiment on Salmonella typhimurium [1] (Salmonella enterica) and against Salmonella typhimurium [2] (Salmonella enterica) were 1 µM (≈ 0.349 µg/mL), 2 µM (≈ 0.699 µg/mL) and 0.3 µM (≈ 0.105 µg/mL), respectively.

On to `CSCCC(N)C(=O)NCC(O)C1OC(C(=O)O)CC(O)C1O` (stereo not given), for which the minimum inhibitory concentration (MIC) against Escherichia coli, against Salmonella typhimurium [1] (Salmonella enterica) and in the experiment with Salmonella typhimurium [2] (Salmonella enterica) was over 2000 µM in each case.

For the molecule `C[C@H](N)C(=O)N[C@@H](C)C(=O)NC[C@H](O)[C@H]1O[C@H](C(=O)O)C[C@@H](O)[C@H]1O`, the MIC against Escherichia coli was determined as 4 µM (≈ 1.45 µg/mL); in the experiment on Salmonella typhimurium [1] (Salmonella enterica) it was 4 µM (≈ 1.45 µg/mL); with Salmonella typhimurium [2] (Salmonella enterica) it was 60 µM (≈ 21.8 µg/mL).
